Laboratory results taken from patent US10766889B2, “Aryl-2,2′-tandem bisthiazole compound and preparation method and use thereof” (SHANGHAI INSTITUTE OF MATERIA MEDICA, CHINESE ACADEMY OF …, priority 2016, dated 2020).
Read-outs that look alike come from different tables or passages of the source. Blank lines part the entries; values can stand above or below the compound they belong to.

How the values were obtained:
[1] = background, subsequent studies on 201410136196.7 compounds; cited from earlier work
[2] = tested on: human multiple myeloma cell line RPMI 8226; assay: Cell level anti-tumor activity test, CCK-8, multiple myeloma cells; assay type: cell-based; conditions: RPMI-8226, 72 h
Procedure: According to the cell growth rate, the multiple myeloma cells in the logarithmic growth phase were inoculated into the 96-well culture plate at 100 μL/well, and then 1 μL/well of compound solution was added, and three replicate wells were set for each concentration, and the DMSO solvent control at corresponding concentration was also set.
CCK-8 staining method: after the drug was applied, 10 μL of CCK-8 solution was added to each well, and incubated at 37° C. for 3 h. The OD value at 450 nm and 690 nm was measured by microplate reader.
The inhibition rate (% Inhibiton) and activity (% Activity) of the test substance on the proliferation of multiple myeloma cells were calculated according to the following formula, wherein ODsample refers to the absorbance value of the administration hole (OD450-OD690). OD DMSO refers to the absorbance of the DMSO control well (OD450-OD690).
The logarithm of the concentration was plotted against the activity percentage (% Activity), and the fitted curve was calculated by nonlinear regression. The value of IC50 was calculated by using the GraphPad Prism5 software log(inhibitor) vs response—Variable slope parameter setting. Each set of experiments was repeated three times independently, while 3 replicate wells per concentration.

Lung Cancer A549 = assay: Tumor cell proliferation inhibition, SRB; assay type: cell-based; conditions: Homo sapiens, 72 h, read-out: IC50 (mean ± SD) Lung Cancer A549
Procedure: The antitumor activity test of the example compounds was carried out, and the in vitro antitumor activities of the compounds were evaluated by measuring the growth inhibitory activities of the compounds against a plurality of human tumor cell lines.
Tumor cells (except MDA-MB-231) were routinely cultured under 37° C., 5% CO2.
According to the cell growth rate, the tumor cells in the logarithmic growth phase were inoculated into 96-well culture plates at 90 μL/well, and adherently grown for 24 h and then added with 10 μL/well, and each concentration was set to three replicate wells, and DMSO vehicle controls and cell-free wells at corresponding concentration were also set. Tumor cells (except MDA-MB-231) were cultured for 72 h under conditions of 37° C. and 5% CO2 (MDA-MB-231 cells were cultured at 37° C. without CO2). […] The OD value at 450 nm was measured by a microplate reader. […] After dried by convert placing in an oven, 150 μL of 10 mM Tris solution was added into each well, and the OD value at 560 nm was measured by a microplate reader.
The inhibition rate of tumor cell proliferation was calculated according to the following formula. The half-inhibition amount IC50 value was calculated by Log it method. […]

Lung Cancer EBC-1 = assay: Tumor cell proliferation inhibition, SRB; assay type: cell-based; conditions: Homo sapiens, EBC-1, 72 h, read-out: IC50 (mean ± SD) Lung Cancer EBC-1
human HDAC1 = molecular target: T1, human HDAC1 (Homo sapiens, UniProt Q13547); assay: Inhibition activity test of histone deacetylase 1 (fluorescence, Ac-Lys-Tyr-Lys(Ac)-AMC substrate); assay type: biochemical; conditions: mean of 3 experiments
T1 construct: made in house
T1 sequence (Q13547 whole entry): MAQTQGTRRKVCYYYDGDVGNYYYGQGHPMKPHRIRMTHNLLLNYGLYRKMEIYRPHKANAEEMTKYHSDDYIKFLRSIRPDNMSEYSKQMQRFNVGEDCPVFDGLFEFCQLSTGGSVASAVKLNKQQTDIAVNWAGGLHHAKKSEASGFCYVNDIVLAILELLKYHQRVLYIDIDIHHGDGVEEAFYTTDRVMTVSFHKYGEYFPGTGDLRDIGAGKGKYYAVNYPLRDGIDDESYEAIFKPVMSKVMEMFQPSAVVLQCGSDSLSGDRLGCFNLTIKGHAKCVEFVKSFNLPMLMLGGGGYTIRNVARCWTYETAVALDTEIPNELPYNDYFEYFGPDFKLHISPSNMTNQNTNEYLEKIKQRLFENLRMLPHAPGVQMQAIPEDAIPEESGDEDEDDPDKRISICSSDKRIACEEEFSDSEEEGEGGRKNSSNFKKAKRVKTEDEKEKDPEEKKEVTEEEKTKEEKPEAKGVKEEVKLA
Procedure: (§1) The inhibitory activity of the example compounds against human histone deacetylases 1, 3 and 6 (i.e., human HDAC1, HDAC3 and HDAC6) was tested.
(§2) Substrates: HDAC1, HDAC 3: Ac-Lys-Tyr-Lys (Ac)-AMC; HDAC6: Boc-lys (Ac)-AMC; all purchased from Shanghai Jill Biochemical Co., Ltd.
(§3) The activity of HDAC1 and HDAC3 was detected using Ac-Lys-Tyr-Lys(Ac)-AMC as substrate, and the activity of HDAC6 was detected using Boc-Lys(Ac)-AMC as substrate, and both were detected by fluorescence detection. […] The initial velocity of the reaction is calculated by detecting the change in the fluorescence signal over time.
(§4) The test compound, enzyme and reaction buffer were well mixed and the substrate was added to start the reaction. […]
(§5) The fluorescence signal intensity at 460 nm was measured, and then the activity percentage (% Activity) of each concentration groups of the sample was calculated. […]
(§6) The logarithm of the concentration was plotted against the percentage of activity, and then the nonlinear regression was used to calculate the fit curve. The value of IC50 was calculated by the software GraphPad Prism 5 formula log(inhibitor) vs. response—Variable slope.
(§7) Each of the above experiments was repeated 3 times, and there were more than 3 replicate wells for each experiment. The average IC50 value of the three experiments was determined as the final indicator of the compound inhibition ability.

human HDAC3 = molecular target: T2, human HDAC3 (Homo sapiens, UniProt O15379); assay: Inhibition activity test of histone deacetylase 3 (fluorescence, Ac-Lys-Tyr-Lys(Ac)-AMC substrate); assay type: biochemical; conditions: mean of 3 experiments
T2 construct: made in house
T2 sequence (O15379 whole entry): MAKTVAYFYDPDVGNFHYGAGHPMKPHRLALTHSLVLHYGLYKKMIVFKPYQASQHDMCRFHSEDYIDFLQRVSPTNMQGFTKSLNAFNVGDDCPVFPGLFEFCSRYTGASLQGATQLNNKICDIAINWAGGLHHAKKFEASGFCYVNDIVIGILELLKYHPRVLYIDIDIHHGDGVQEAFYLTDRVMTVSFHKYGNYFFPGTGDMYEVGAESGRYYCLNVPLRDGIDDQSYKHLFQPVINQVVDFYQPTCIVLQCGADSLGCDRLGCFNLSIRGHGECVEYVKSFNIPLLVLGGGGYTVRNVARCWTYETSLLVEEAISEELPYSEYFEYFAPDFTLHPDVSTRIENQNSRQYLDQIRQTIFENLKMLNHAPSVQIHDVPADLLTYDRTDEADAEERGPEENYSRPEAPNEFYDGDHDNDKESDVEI
Procedure: as §1, §2, §3, §4, §5, §6, §7

human HDAC6 = molecular target: T3, human HDAC6 (Homo sapiens, UniProt Q9UBN7); assay: Inhibition activity test of histone deacetylase 6 (fluorescence, Boc-Lys(Ac)-AMC substrate); assay type: biochemical; conditions: mean of 3 experiments
T3 construct: made in house
T3 sequence (Q9UBN7 1-1215): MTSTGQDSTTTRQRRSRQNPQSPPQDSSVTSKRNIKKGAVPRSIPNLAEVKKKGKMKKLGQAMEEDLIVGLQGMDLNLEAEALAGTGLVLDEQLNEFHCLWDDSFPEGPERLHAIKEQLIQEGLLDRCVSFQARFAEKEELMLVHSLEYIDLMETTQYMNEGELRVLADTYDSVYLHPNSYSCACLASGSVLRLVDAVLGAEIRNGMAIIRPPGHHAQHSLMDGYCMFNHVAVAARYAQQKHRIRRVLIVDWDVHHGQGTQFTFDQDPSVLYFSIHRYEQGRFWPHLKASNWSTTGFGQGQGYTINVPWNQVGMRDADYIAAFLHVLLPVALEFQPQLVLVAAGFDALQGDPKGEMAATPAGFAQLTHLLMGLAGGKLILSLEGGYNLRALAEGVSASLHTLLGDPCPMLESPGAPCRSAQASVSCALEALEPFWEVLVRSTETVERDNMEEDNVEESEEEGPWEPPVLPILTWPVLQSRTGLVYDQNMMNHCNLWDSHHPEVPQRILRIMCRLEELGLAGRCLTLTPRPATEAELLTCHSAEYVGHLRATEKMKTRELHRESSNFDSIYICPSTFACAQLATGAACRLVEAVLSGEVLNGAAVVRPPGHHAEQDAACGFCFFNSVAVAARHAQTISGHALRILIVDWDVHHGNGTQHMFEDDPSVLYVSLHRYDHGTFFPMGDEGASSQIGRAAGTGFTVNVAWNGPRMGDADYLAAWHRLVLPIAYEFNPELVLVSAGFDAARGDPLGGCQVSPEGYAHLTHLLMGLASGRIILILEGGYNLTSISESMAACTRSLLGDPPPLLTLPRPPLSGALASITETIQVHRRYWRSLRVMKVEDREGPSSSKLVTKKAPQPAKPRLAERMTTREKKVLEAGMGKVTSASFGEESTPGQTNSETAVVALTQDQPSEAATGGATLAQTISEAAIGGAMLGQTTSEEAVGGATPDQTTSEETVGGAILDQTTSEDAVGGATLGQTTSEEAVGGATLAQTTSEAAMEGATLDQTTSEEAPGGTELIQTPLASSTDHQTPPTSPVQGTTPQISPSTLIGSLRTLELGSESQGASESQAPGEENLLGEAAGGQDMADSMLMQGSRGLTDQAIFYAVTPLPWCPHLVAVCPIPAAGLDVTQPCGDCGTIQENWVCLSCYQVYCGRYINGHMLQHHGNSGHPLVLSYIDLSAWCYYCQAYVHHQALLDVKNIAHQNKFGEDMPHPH
Procedure: as §1, §2, §3, §4, §5, §6, §7

[3] = tested on: human myeloma RPMI 8226 NOD/SCID mouse xenografts; assay: Pharmacological experiment in human myeloma RPMI 8226 NOD/SCID mouse transplantation model; assay type: in vivo
Text: The efficacy of compound H08 in an animal model of human multiple myeloma was investigated.
NOD/SCID mice, female, 5-6 weeks old, body weight 20±3 g, provided by Shanghai Lingchang Biotechnology Co., Ltd., production certificate number: SCXK (Shanghai) 2013-0018. Number of animals per group: 6. IACUC number: 2013-0007 (Nanmo).
Human myeloma RPMI 8226 cell line was preserved by Li Jia et al., Shanghai Institute of Materia Medica. The cell line was inoculated to the right axillary fossa of NOD/SCID mice, and the amount of cells inoculated was 1×10^7 cells each mouse. After the transplanted tumor was formed, it was used in NOD/SCID mice after 2 passages.
The tumor tissue in the vigorous growth period was cut into 1.5 mm^3, and inoculated subcutaneously in the right axilla of the NOD/SCID mice under aseptic conditions. The diameter of the transplanted tumor of NOD/SCID mice were measured with a vernier caliper and the animals were randomly grouped when the tumor growed up to 100-300 mm^3. The grouping scheme is shown in Table 5, and the solvent control group was given an equal amount of blank solvent. The diameter of the transplanted tumor was measured twice a week during the entire experiment, and the body weight of the mice was weighed as well. The tumor volume (TV) was calculated as: TV=½×a×b^2, wherein a and b represent length and width, respectively. The relative tumor volume (RTV) was calculated based on the measured results and the formula was: RTV=Vt/V0. Wherein V0 is the tumor volume measured before grouping and dosing (d0), and Vt is the tumor volume at each measurement.

[4] = Preliminary metabolic experiments, oral bioavailability in mice; conditions: mouse, in vivo
Liver cancer BEL-7404 = assay: Tumor cell proliferation inhibition, SRB; assay type: cell-based; conditions: Homo sapiens, 72 h, read-out: IC50 (mean ± SD) Liver cancer BEL-7404
Procedure: (§8) After the drug was applied, 10 μL of CCK-8 solution was added to each well in Ramos, HL-60, Molt-4, Raji, CCRF-CEM, and SU-DHL-6 tumor cell line experiments, and incubated at 37° C. for 2 h. The OD value at 450 nm was measured by a microplate reader. […] After dried by convert placing in an oven, the plate was taken out and 100 μL of SRB solution (4 mg/mL SRB powder dissolved in 1% glacial acetic acid) was added into each well. After standed at room temperature for 15 minutes, it was washed five times with 1% glacial acetic acid to completely remove the SRB which has not bounded to the plate protein. After dried by convert placing in an oven, 150 μL of 10 mM Tris solution was added into each well, and the OD value at 560 nm was measured by a microplate reader.
(§9) The inhibition rate of tumor cell proliferation was calculated according to the following formula. The half-inhibition amount IC50 value was calculated by Log it method. Inhibition rate=(control group OD value−administration group OD value)/control group OD value×100%. Each set of experiments was repeated three times independently, while 3 replicate wells per concentration.

stomach cancer MKN-74 = assay: Tumor cell proliferation inhibition, SRB; assay type: cell-based; conditions: Homo sapiens, 72 h, read-out: IC50 (mean ± SD) stomach cancer MKN-74
Procedure: as §8, §9

[5] = tested on: Embryonic lung cells MRC-5; assay: Cell proliferation inhibition, SRB; assay type: cell-based; conditions: Homo sapiens, MRC5, 72 h, read-out: IC50 (mean ± SD) Embryonic lung cells MRC-5
Procedure: as §8, §9

lymphoma Ramos = assay: Tumor cell proliferation inhibition, CCK-8; assay type: cell-based; conditions: Homo sapiens, 72 h, read-out: IC50 (mean ± SD) lymphoma Ramos
Procedure: as §8, §9

promyeloid leukemia HL60 = assay: Tumor cell proliferation inhibition, CCK-8; assay type: cell-based; conditions: Homo sapiens, HL-60, 72 h, read-out: IC50 (mean ± SD) promyeloid leukemia HL60
Procedure: as §8, §9

[6] = tested on: Acute lymphoblastic leukemia MOLT-4; assay: Tumor cell proliferation inhibition, CCK-8; assay type: cell-based; conditions: Homo sapiens, 72 h, read-out: IC50 (mean ± SD) Acute lymphoblastic leukemia MOLT-4
Procedure: as §8, §9

[7] = tested on: Human blood lymphoma Raji; assay: Tumor cell proliferation inhibition, CCK-8; assay type: cell-based; conditions: 72 h, read-out: IC50 (mean ± SD) Human blood lymphoma Raji
Procedure: as §8, §9

[8] = tested on: Acute lymphocytic leukemia T lymphocyte CCRF; assay: Tumor cell proliferation inhibition, CCK-8; assay type: cell-based; conditions: Homo sapiens, 72 h, read-out: IC50 (mean ± SD) Acute lymphocytic leukemia T lymphocyte CCRF
Procedure: as §8, §9

tumor cell = conditions: WO2012152208, background; read-out: IC50 tumor cell proliferation inhibitory activity; cited from earlier work
[9] = read-out: IC50 (growth inhibition, RPMI 8226)
[10] = read-out: IC50 (proliferation of RPMI 8226)
[11] = 25 mg/kg, p.o., once/day, 3 weeks
[12] = 25 mg/kg, p.o., once/day, 3 weeks, d21
[13] = 50 mg/kg, p.o., once/day, 3 weeks
[14] = 50 mg/kg, p.o., once/day, 3 weeks, d21
[15] = 100 mg/kg bid, p.o., 3 weeks, d21
[16] = 1 mg/kg, i.v., twice/week for 3 weeks
[17] = 1 mg/kg, i.v., twice/week for 3 weeks, d21

Structure (SMILES): O=C(NCCC(=O)C(F)(F)F)c1nc(-c2nccs2)sc1C1CC1 [GCJ403]
- oral bioavailability [1]: 14.7%

- IC50 [2, 9]: 50 ± 22 nM
Structure (SMILES): Cc1csc(-c2nc(C(=O)N[C@@H](C)c3ccc(C(=O)NO)cc3)c(C3CC3)s2)n1 [Compound H06]

- IC50 [2, 9]: 123 ± 43 nM
Structure (SMILES): Cc1cnc(-c2nc(C(=O)N[C@@H](C)c3ccc(C(=O)NO)cc3)c(C3CC3)s2)s1 [Compound H05]

Structure (SMILES): O=C(CCCCCCC(=O)Nc1ccccc1)NO [SAHA, vorinostat]
- IC50 (Lung Cancer A549): 2910 ± 678 nM
- IC50 (Lung Cancer EBC-1): 1550 ± 474 nM

- IC50 [2, 9]: 139 ± 19 nM
Structure (SMILES): C[C@H](NC(=O)c1nc(-c2nc3c(s2)CCCC3)sc1C1CC1)c1ccc(C(=O)NO)cc1 [Compound H07]

- IC50 (human HDAC1): 6.71 ± 0.11 nM
- IC50 (human HDAC3): 6.15 ± 0.25 nM
- IC50 (human HDAC6): 9.78 ± 0.02 nM
- IC50 [2, 9]: 8 nM
- IC50 [2, 10]: ~8 nM
Structure (SMILES): O=C(NO)c1ccc(CNC(=O)c2nc(-c3ncc(-c4ccccc4)s3)sc2C2CC2)cc1 [Compound H12]

- IC50 [2, 9]: 28 ± 10 nM
Structure (SMILES): C[C@H](NC(=O)c1nc(-c2nccs2)sc1C1CC1)c1ccc(C(=O)NO)cc1 [Compound H02]

- IC50 [2, 9]: 12 ± 4 nM
Structure (SMILES): COc1ccc(-c2cnc(-c3nc(C(=O)N[C@@H](C)c4ccc(C(=O)NO)cc4)c(C4CC4)s3)s2)cc1 [Compound H10]

- IC50 [2, 9]: 18 ± 6 nM
Structure (SMILES): C[C@H](NC(=O)c1nc(-c2ncc(-c3ccc(F)cc3)s2)sc1C1CC1)c1ccc(C(=O)NO)cc1 [Compound H09]

- IC50 [2, 9]: 182 ± 15 nM
Structure (SMILES): CC(NC(=O)c1nc(-c2nccs2)sc1C1CC1)c1ccc(C(=O)NO)cc1 (stereo not shown) [Compound H01]

- IC50 [2, 9]: 8 nM
- IC50 [2, 10]: ~8 nM
- bioavailability [4]: 34.4%
Structure (SMILES): C[C@H](NC(=O)c1nc(-c2ncc(-c3ccccc3)s2)sc1C1CC1)c1ccc(C(=O)NO)cc1 [Compound H08]
- TV d0 (average ± SD) [3, 11]: 154 ± 44 mm^3
- body weight d0 [3, 11]: 22.1 ± 1.3 g
- RTV (Average ± SD) [3, 12]: 8.40 ± 1.35
- TV d21 (average ± SD) [3, 12]: 1,279 ± 353 mm^3
- body weight d21 [3, 12]: 23.7 ± 0.8 g
- TV d0 (average ± SD) [3, 13]: 154 ± 45 mm^3
- body weight d0 [3, 13]: 22.2 ± 1.1 g
- RTV (Average ± SD) [3, 14]: 5.48 ± 2.99
- TV d21 (average ± SD) [3, 14]: 821 ± 406 mm^3
- body weight d21 [3, 14]: 22.7 ± 0.9 g
- change in body weight of the mice during the experiment ([3]; oral 50 mg/kg for three weeks): no change in body weight

- IC50 [2, 9]: 326 ± 18 nM
Structure (SMILES): C[C@@H](NC(=O)c1nc(-c2ncc(-c3ccccc3)s2)sc1C1CC1)c1ccc(C(=O)NO)cc1 [Compound H11]

- IC50 (Liver cancer BEL-7404): 18.6 ± 1.51 nM
- IC50 (Lung Cancer A549): 48.9 ± 7.01 nM
- IC50 (stomach cancer MKN-74): 29.2 ± 0.97 nM
- IC50 (lymphoma Ramos): 7.14 ± 0.42 nM
- IC50 (promyeloid leukemia HL60): 12.3 ± 0.24 nM
- IC50 [6]: 15 ± 8.18 nM
- IC50 [7]: 12.3 ± 1.61 nM
- IC50 [8]: 13.7 ± 0.93 nM
Structure (SMILES): Cc1[nH]c2ccccc2c1CCNCc1ccc(/C=C/C(=O)NO)cc1 [LBH589, panobinostat]
- IC50 [5]: 76.9 ± 7.22 nM

- IC50 [2, 9]: 690 ± 410 nM
Structure (SMILES): O=C(CCNC(=O)c1nc(-c2nccs2)sc1C1CC1)NO [bexanostat, reference compound]
- TV d0 (average ± SD) ([3]; 100 mg/kg bid, p.o., 3 weeks): 155 ± 46 mm^3
- body weight d0 ([3]; 100 mg/kg bid, p.o., 3 weeks): 22.2 ± 1.4 g
- RTV (Average ± SD) [3, 15]: 4.83 ± 0.51
- TV d21 (average ± SD) [3, 15]: 620 ± 87 mm^3
- body weight d21 [3, 15]: 19.8 ± 1.0 g
- IC50 (tumor cell): < 400 nM

Structure (SMILES): CC(C)C[C@H](NC(=O)[C@H](Cc1ccccc1)NC(=O)c1cnccn1)B(O)O [PS341, Bortezomib, reference compound]
- TV d0 (average ± SD) [3, 16]: 155 ± 48 mm^3
- body weight d0 [3, 16]: 21.9 ± 1.0 g
- RTV (Average ± SD) [3, 17]: 7.19 ± 3.58
- T/C relative tumor growth rate [3, 17]: 45.27%
- TV d21 (average ± SD) [3, 17]: 1,077 ± 538 mm^3
- body weight d21 [3, 17]: 23.3 ± 1.7 g
